In publication PMC11124362, “Metabolism, Disposition, Excretion, and Potential Transporter Inhibition of 7–16, an Improving 5-HT2A Receptor Antagonist and Inverse Agonist for Parkinson’s Disease” (Molecules, 2024):

Columns and labels:
[1] = Excretion and metabolite identification in bile duct cannulated (BDC) rats; assay type: in vivo, Sprague-Dawley rats
Method: In the urine and feces excretion experiment, six rats (3 females and 3 males) were administered a single oral dose of [^14C]7–16 at 3 mg/100 µCi/kg. Urine, feces and cage washing/cleaning solution samples were collected from 0 to 168 h following drug administration at the following time intervals: 0–8, 8–24 h (0–24 h for feces), 24–48, 48–72, 72–96, 96–120, 120–144, and 144–168 h. In the biliary excretion experiment, 8 rats using a bile duct cannula (BDC) (4 females and 4 males) were administered a single oral dose of [^14C]7–16 at 3 mg/100 µCi/kg. Bile, urine, feces, and cage washing solution were collected from before and 0–72 h after oral administration at the following time intervals: 0–4, 4–8 (urine 0–8), 8–24 (feces 0–24), 24–48, and 48–72 h. All samples were collected and refrigerated at −20 °C until determination of the radioactive concentrations by liquid scintillation counter (Perkin Elmer Corporation, Waltham, MA, USA). Urine, feces, and bile samples at each time period were mixed by equal percentages of either volume or weight. After the mixed samples were treated, the radio-profiles and metabolite identification in the bile, urine, and feces samples were carried out by LC-RAM and UPLC-Q Exactive HRMS, and the TRA% of each metabolite in plasma and the percentage of dose (dose%) of each compound in urine, feces, and bile samples were calculated.

OATP1B1 = target: T1, OATP1B1 (Homo sapiens, UniProt Q9Y6L6)
T1 sequence (Q9Y6L6 1-691): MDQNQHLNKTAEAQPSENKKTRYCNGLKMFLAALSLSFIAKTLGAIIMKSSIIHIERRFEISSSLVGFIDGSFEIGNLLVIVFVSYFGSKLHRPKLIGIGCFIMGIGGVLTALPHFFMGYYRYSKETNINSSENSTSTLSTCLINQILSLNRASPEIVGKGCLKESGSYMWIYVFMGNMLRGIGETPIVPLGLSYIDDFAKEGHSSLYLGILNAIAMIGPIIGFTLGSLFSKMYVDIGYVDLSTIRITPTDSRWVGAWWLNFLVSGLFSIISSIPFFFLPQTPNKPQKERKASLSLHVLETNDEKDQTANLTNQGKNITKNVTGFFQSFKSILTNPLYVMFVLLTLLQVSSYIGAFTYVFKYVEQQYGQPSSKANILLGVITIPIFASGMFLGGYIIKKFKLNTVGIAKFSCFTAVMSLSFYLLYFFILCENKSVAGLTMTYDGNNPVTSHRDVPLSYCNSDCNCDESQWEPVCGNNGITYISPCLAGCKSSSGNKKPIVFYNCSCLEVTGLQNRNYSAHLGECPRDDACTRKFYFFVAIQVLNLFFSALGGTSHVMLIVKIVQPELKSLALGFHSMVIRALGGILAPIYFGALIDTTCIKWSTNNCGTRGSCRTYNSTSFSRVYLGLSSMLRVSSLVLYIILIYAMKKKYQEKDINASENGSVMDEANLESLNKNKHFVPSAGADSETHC

CYP2C19 = experiment: Metabolic phenotype by rhCYP isozymes, CYP2C19; assay type: in vitro ADME, human; details: 7–16 1 µM
Method: (§1) Based on the result of metabolite identification, two metabolites were selected as targets for metabolic phenotyping analysis. Seven CYP isozymes (CYP1A2, CYP2B6, CYP2C8, CYP2C9, CYP2C19, CYP2D6, and CYP3A4) were investigated using the rhCYP isozymes method. In brief, 7–16 (1 µΜ) was incubated with each rhCYP isozyme ([…]) in 100 mM sodium phosphate buffer (pH 7.4) containing 3 mM magnesium chloride. After 10 min of preincubation at 37 °C, the reactions were initiated by adding NADPH (1 mM) and then incubated at 37 °C in a shaking water bath for 0, 5, 15, and 30 min. The specific substrates of each rhCYP isozyme were incubated as the above method to confirm the activity of the incubation system. The samples were prepared in triplicates. The reactions were terminated by adding three times the volume of ice-cold acetonitrile (600 µL) and stored at −20 °C until analysis. After pre-treatment, the samples were determined by the LC–MS/MS (Shimadzu Exion-Triple Quad 4500) method. The relative contribution rate of each isozyme to the metabolism of 7–16 was evaluated in HLMs using the following formula: Contributionx% = Vx × Abundancex (pmol/mg protein)/Σ(Vi × Abundancei). Vx (µL/min/pmol) is the production rate of metabolites for each rhCYP isozyme.

[2] = Metabolite identification in mouse liver microsomes; assay type: in vitro ADME; details: 7–16 10 µM, liver microsomes 1 mg/mL, NADPH, 37 °C, 60 min
Method: In accordance with our previous methods, 7–16 (10 µM) was incubated with mouse, rat, dog, monkey, and human liver microsome proteins (1 mg/mL) in 100 mM sodium phosphate buffer (pH 7.4) containing 10 mM magnesium chloride and 2 mM NADPH at 37 °C for 60 min. All samples were prepared in duplicates. The reactions were terminated by adding three times the volume of ice-cold acetonitrile (600 µL) and stored at −20 °C until analysis. Control samples without NADPH and 0-time point samples were included. As a positive control, testosterone (10 µM), which was metabolized to produce the hydroxylation metabolite, was used as a substrate to confirm the activity of the incubation system.
After pre-treatments, the samples were analyzed by an Acquity UPLC system coupled with a diode array detector (Waters Corporation, Milford, MA, USA) and Q Exactive HRMS (Thermo Electron Corporation, Waltham, MA, USA) (UPLC–UV-Q Exactive HRMS). Samples were separated on an Agilent XDB C18 column (150 × 2.1 mm i.d. 3.5 μm, Agilent Corporation, Santa Clara, CA, USA) at 40 °C by gradient elution with water and acetonitrile containing 0.1% formic acid. The flow rate was 0.40 mL/min. The ultraviolet (UV) detection wavelength was 286 nm. Q Exactive HRMS were operated at positive ion mode (3.5 kV) using a heating electrospray ionization source. Mass calibration was required to be performed before conducting experiments so as to achieve the best mass accuracy and mass calibration should be performed every five days. The metabolites were detected by full MS/dd-MS^2 analysis from m/z 100 to m/z 1000. The resolution of the first-class scan and second-class scan was 70,000 and 17,500, respectively. Thermo Compound Discover software was used to identify expected and unknown metabolites, and we finally proposed the 7–16 metabolic pathways based on the deduced metabolites and relevant drug biotransformation knowledge.

CYP2D6 [3] = experiment: Metabolic phenotype by rhCYP isozymes, CYP2D6; assay type: in vitro ADME, human; details: 7–16 1 µM
Method: as §1

CYP2D6 [4] = test system: CYP2D6; set-up: method as in PMID 35279606; details: previous study; read-out: CYP2D6 inhibition IC50; cited from earlier work

CN1CCC(N(Cc2ccc(F)cn2)C(=O)NCc2ccc(OCC(F)(F)F)cc2)CC1 [7–16, 3-(4-(2,2,2-trifluoroethoxy)benzyl)-1-((5-fluoropyridin-2-yl)methyl)-1-(1-methylpiperidin-4-yl) urea]
recovery of radioactivity in bile, percent of dose ([1]; BDC rats, 0–72 h): 18.4%
recovery of radioactivity in cage rinse/wash, percent of dose ([1]; BDC rats, 0–72 h): 3.42%
recovery of radioactivity in feces, percent of dose ([1]; BDC rats, 0–72 h): 20.2%
recovery of radioactivity in urine, percent of dose ([1]; BDC rats, 0–72 h): 56.3%
total recovery of radioactivity, percent of dose ([1]; BDC rats, 0–72 h, oral 3 mg/100 µCi/kg, mean of both sexes): 98.3%
recovery of radioactivity within the first 24 h, percent of dose ([1]; BDC rats, first 24 h post-administration): 82.8%
absorption rate ([1]; calculated from dose excreted in bile and urine of BDC rats, oral): at least 74.7%
IC50 (OATP1B1): > 100 µM
relative contribution of CYP2C19 to metabolism (CYP2C19): little or no contribution
Relative Abundance, UV Area% Mouse [2]: 91.3%
relative contribution of CYP2D6 to metabolism (CYP2D6 [3]): little or no contribution
IC50 (CYP2D6 [4]): > 62.9 µM
